Data published in US10240133B2, “ERK-derived peptides and uses thereof” (Yeda Research and Development Co. Ltd., priority 2013, dated 2019).

Tests used:
[1] = tested on: PLX-4032 and U0126 resistant A2352 melanoma cells; test: Proliferation of inhibitor-resistant melanoma cells; format: cell-based
Method: (A) A2352 melanoma cells resistant to either PLX4032 (B-Raf) or U0126 (MEK) inhibitors were treated with DMSO, EPE or Scr peptide (10 μM), U0126 (10 μM), PLX4032 (1 μM), Wortmannin (0.5 μM) or Taxol (25 μg/ml). Presented as percent of viable cells at 72 h/initial cell number. […] Methylene blue assay was performed to quantify viable cells. Experiments were done twice in triplicate. Data presented as fold change.
A2352 cells were supplemented with either PLX4032 (B-Raf inhibitor, 1 μM), or U0126 (MEK inhibitor, 10 μM) for 45 days. […]

[2] = tested on: other cell lines examined; test: Apoptosis (TUNEL, PARP-1 cleavage); format: cell-based
Method: (§1) FIGS. 5A-5D illustrate that the EPE peptide leads to apoptosis of B-Raf mutant cancer cells. (A) The EPE peptide affects the morphology of treated cells. The indicated cells were treated with either the EPE or Scr peptides, DMSO, or taxol for 72 h, and photographed by a light microscope. (B) The EPE peptide induces apoptosis in melanoma cells detected by TUNEL. The indicated cell lines were treated as in A for 24 h. Apoptosis was detected by TUNEL staining. Images were obtained by florescence microscope. (C) Quantification of B. The bar-graph represents percent of apoptotic cells calculated in 10 different fields. (D) The EPE peptide induces apoptosis of melanoma cells detected by PARP cleavage. The indicated cell lines were treated as in (A) for 24 h. Cell extracts were subjected to Western blotting with αPARP Ab.
Cells were seeded on glass cover slips in a 12-wells plate at 25% confluence with medium containing 1% of FCS. Peptides (EPE or Scr), DMSO, or U0126 in a final concentration of 10 μM, were added after 4 h (considered as time “0”). TUNEL staining was performed at 24 h after the treatment according to manufacturer instruction (Roche Applied Science, Nutley, N.J., USA). Briefly, the medium was removed and cells were fixed with 3% of paraformaldehyde (1.5 h, 23° C.). Cells were rinsed twice with PBS and permeabilized with 0.1% Triton X-100 and 0.1% sodium citrate for 2 min on ice. Cells were rinsed twice with PBS and 28 μl of TUNEL reaction mixture (25 μl of TUNEL label, 2.5 μl of TUNEL enzyme and 0.1 mg/ml of DAPI) was added directly on top of the slide, cells were incubated for 16 h in humid box at 37° C. Cover slips were rinsed three times with PBS and mounted on microscope slides. The slides were dried and then subjected to image acquisition by a florescence microscope. For morphology assay, the cells were seeded at approximately 25% confluence in 6 cm plates with medium containing 1% FCS. Peptides (EPE and Scr) or DMSO or U0126 in a final concentration of 10 μM, were added after 4 h (considered to be time 0), 24 h and 48 h. Images were obtained by a light microscope (Olympus BX51) after 72 h.

[3] = tested on: ERK1/2; test: Nuclear translocation of ERK (fluorescence microscopy, subcellular fractionation); format: cell-based; conditions: HeLa cells
Method: FIGS. 1A-1F illustrate that EPE peptide prevents nuclear translocation of ERK1. A2352 (A), MDA-MB-231 (B) HeLa (C), T47D (D), NHEM-AD (E) and HB2 (F) cells were serum-starved, pretreated with the EPE peptides, Scr peptide (10 μM, 2 h) DMSO and then either stimulated with TPA (250 nM, 15 min) or left untreated (NS) as control. The cells were stained with αgERK1/2 Ab and DAPI. Scale-bar—15 μm.
FIGS. 12A-12D illustrate that the EPE peptide inhibits the nuclear translocation of ERK1/2. Serum-starved (0.1% FCS, 16 hr) A2352 (FIG. 12A), HeLa (FIG. 12B), MDA-MB-231 (FIG. 12C), or LOXMVI (FIG. 12D) cells were pretreated with EPE or scrambled peptides (10 μM, 2 hr). Cells were then stimulated with EGF (50 ng/ml) or left untreated, and then harvested. Subcellular fractionation of cytoplasm and nucleus was performed as below, and fractions were subjected to Western blot analysis with the indicated Abs. Subcellular Fractionation was performed as follows: Harvested cells were resuspended in 200 μl of buffer H containing 0.1% Nonidet P-40. The lysates were mixed vigorously and centrifuged immediately to yield supernatants containing the cytosolic fraction. Nuclear proteins were extracted by resuspending the nuclear pellets in 200 μl of extraction buffer, waiting on ice for 5 min, brief sonication (2×5 sec, 40 W, 4° C.), vigorous mixing, and centrifugation. Both cytosolic and nuclear fractions were subjected to Western blotting.
A2185 (A) and A2352 (B) B-Raf melanoma cells were serum-starved (16 hours, 0.1% FBS), and then either pretreated with the EPE peptides (10 μM, 2 hours) or left untreated. Then, the cells were stimulated with TPA ([…], 20 min), or left untreated (NS) DMSO as control. The cells were stained with either anti ERK1 (Santa Cruz, C16) or anti ERK2 (C14, Santa Cruz) Abs and DAPI. (C) Quantification of the number of cell in which ERK1 or ERK2 were mostly (>80%) localized in the nucleus was performed by counting 5 fields containing 100 cells per field.
FIGS. 15A-15B illustrate that the EPE peptide prevents nuclear accumulation/translocation of ERK1/2 in PLX4032-resistant melanoma cells. A2352 that were made resistant to PLX4032 (as described under Material and Methods) and A4132 PLX4032 resistant melanoma cell from patient were serum-starved (16 hours, 0.1%), pretreated with the EPE or scrambled peptide (10 μM, 2 hours) and then either stimulated with TPA (100 nM, 20 min) or left untreated (NT) as control. The cells were stained with αgERK1/2 Ab and DAPI.
Cells were fixed in 3% paraformaldehyde in PBS (20 min, 23° C.), and then permeabilized and blocked with 0.2% Triton X-100 in PBS-BSA (2%) for 20 min at 23° C. The fixed cells were sequentially incubated with appropriated Abs, (diluted in 10 μg/ml BSA/PBS) for 1 h, followed by either Cy-2 or rhodamine-conjugated secondary Abs and DAPI (diluted in BSA/PBS, 1:200) for 1 h. To follow the subcellular localization of the biotin-conjugated peptides, cells were incubated with Avidin-FITC (diluted in BSA/PBS 1:400) and DAPI. Slides were analyzed and photographed by a fluorescent microscope (Nikon, Japan, 600× magnification).

[4] = tested on: B-Raf melanoma cells; test: Morphology assay (light microscopy); format: cell-based; conditions: 10 μM
Method: as §1
Cells were seeded on glass cover slips in a 12-wells plate at 25% confluence with medium containing 1% of FCS. Peptides (EPE or Scr), DMSO, or U0126 in a final concentration of 10 μM, were added after 4 h (considered as time “0”). TUNEL staining was performed at 24 h after the treatment according to manufacturer instruction (Roche Applied Science, Nutley, N.J., USA). Briefly, the medium was removed and cells were fixed with 3% of paraformaldehyde (1.5 h, 23° C.). Cells were rinsed twice with PBS and permeabilized with 0.1% Triton X-100 and 0.1% sodium citrate for 2 min on ice. Cells were rinsed twice with PBS and 28 μl of TUNEL reaction mixture (25 μl of TUNEL label, 2.5 μl of TUNEL enzyme and 0.1 mg/ml of DAPI) was added directly on top of the slide, cells were incubated for 16 h in humid box at 37° C. Cover slips were rinsed three times with PBS and mounted on microscope slides. The slides were dried and then subjected to image acquisition by a florescence microscope. For morphology assay, the cells were seeded at approximately 25% confluence in 6 cm plates with medium containing 1% FCS. Peptides (EPE and Scr) or DMSO or U0126 in a final concentration of 10 μM, were added after 4 h (considered to be time 0), 24 h and 48 h. […]

[5] = tested on: A2352 xenografts; test: Tumor disappearance and recurrence in A2352 xenografts, EPE peptide compared with PLX4032; format: in vivo, SCID mice
Method: FIGS. 6A-6B illustrate that the EPE peptide prevents the growth of human tumor xenografts. CD-1 nude mice were inoculated with MDA-MB-231, LOXIMVI and HCT-116 cells, and SKID mice were inoculated with A2352 cells. Upon tumors establishment, the mice were treated intravenously with the DMSO as well as EPE or Scr peptides in the indicated doses, 3 times a week. The results are averages of 5 mice in each experimental group. The X, Y, Z dimensions of the tumors were measured with a caliper, and the volume was calculated accordingly. The significance of all experiments was at least P<0.001. (B) The EPE peptide prevents tumor recurrence on melanoma xenograft. SCID mice were inoculated with A2352 cells. Upon establishment of tumors mice were treated intravenously with 15 mg/kg EPE peptide (n=7) or intraperitonealy with 15 mg/kg PLX4032 (n=5), at the indicated dose 3 times a week. Tumor size was recorded at the same time using a caliper. Following 3 weeks of treatment, mice were kept for further evaluation monitoring for any tumor recurrence of the effective treated melanoma xenografts. Experiment was concluded 110 days post inoculation (11 weeks after the last treatment) and the overall state of the animals was evaluated. sac=sacrificed, recur=recurrence, met=metastasis.
Tumor dimensions were measured with a digital sliding caliper.

[6] = tested on: non-transformed melanocytes (NHEM-Ad); test: Cell viability, EPE peptide compared with PLX4032; format: cell-based; conditions: EPE 10 μM, PLX4032 1 μM, 1% FCS
Method: (§2) FIGS. 3A-3B illustrate that EPE peptide prevents proliferation of cancer but not normal cells. (A) Effect of the EPE peptide on the proliferation of various cell lines. Sixteen cancer and four “normal” immortalized cell lines were treated with either EPE or scrambled peptides as described above. Viable cells were assayed by Methylene Blue at 48 or 72 hours after cell seeding. The data from at least three independent experiments is presented as percent of the amount of viable cells/initial cell number, where initial cell number was considered as 100. (B) Comparison of the effects of the EPE-peptide and Raf inhibitor PLX4032 on cell viability. NHEM-Ad, LOXIMVI, A2352, Hela MDA-MB-231, and DU-145 cells were treated with EPE peptide, scrambled peptide, (10 μM), PLX4032 (1 μM), DMSO control, or no treatment at 1% FCS. The number of cells was detected as above. The graphs present the kinetic of cell growth at the indicated times. All experiments were repeated 3 times in triplicates.
(§3) All cells, except of MCF-10A, were seeded into 12-well cell plates in 1% FBS medium. MCF-10A cells were seeded in their complete medium diluted 5 fold. DMSO, Scr peptide, EPE peptide, or U0126 (final concentration of 10 μM each) were added to the appropriated wells four hours later. Every day medium was changed to fresh one containing the same agents. The number of viable cells was measured by Methylene Blue assay at 72 h after cell seeding. Shortly, cells were fixed with 4% Formaldehyde for 2 h at 23° C., washed once with 0.1M Borate Buffer pH 8.5 and stained with of 1% Methylene Blue in 0.1M Borate Buffer for 10 min. Color was extracted by adding 0.1 M HCl for 3 h at 23° C., and examined at 595 nm. For time course experiments, viable cells were measured at 0, 24, 48, 72 and 96 h after cell seeding. For dose response experiments we treaded the cells with 0.1, 1, 3, 10, or 30 μM of peptides for 72 h, as described above.

[7] = tested on: N-Ras transformed melanoma cells LOXIMVI; test: Cell viability, EPE peptide compared with PLX4032; format: cell-based; conditions: EPE 10 μM, PLX4032 1 μM, 1% FCS
Method: as §2, §3

Compound: CC(=O)O[C@H]1C(=O)[C@@]2(C)[C@H]([C@H](OC(=O)c3ccccc3)[C@]3(O)C[C@H](OC(=O)[C@H](O)[C@@H](NC(=O)c4ccccc4)c4ccccc4)C(C)=C1C3(C)C)[C@]1(OC(C)=O)CO[C@@H]1C[C@@H]2O [Taxol, reference compound]
- effect in resistant compared with non-resistant cells [1]: as effective in non-resistant, as resistant cells
- apoptosis / cell death [2]: clear ability to undergo a Taxol or H2O2-induced cell death

Compound: GQLNHILGILGSPSQED (Synthetic peptide (SPS)) [SPS peptide, NTS-derived peptide of ERK]
- TPA-induced nuclear translocation of ERK [3]: prevented TPA-induced nuclear translocation of ERK

Compound: N#CC(=C(/N)Sc1ccccc1N)/C(C#N)=C(\N)Sc1ccccc1N [U0126, reference compound]
- TPA-induced nuclear translocation of ERK [3]: inhibition
- cell morphology [4]: A similar appearance, albeit a weaker one

Compound: CCCS(=O)(=O)Nc1ccc(F)c(C(=O)c2c[nH]c3ncc(-c4ccc(Cl)cc4)cc23)c1F [PLX4032, reference compound]
- time to complete disappearance of tumors ([5]; 15 mg/kg, 3 times a week): 13 to 23 days
- tumor disappearance ([5]; 15 mg/kg, 3 times a week, 3 weeks, EPE i.v. (n=7), PLX4032 i.p. (n=5), initial ~80 mm3 tumors): complete disappearance in three mice
- time to development of resistance (one mouse) ([5]; during treatment): ≤ 13 days
- mice with tumor recurrence ([5]; follow up for up to 11 weeks after last treatment): 3 out of 5
- viability [6]: strong inhibitory effect
- viability [7]: not sensitive to PLX4032

Compound: OO [H2O2]
- apoptosis / cell death [2]: clear ability to undergo a Taxol or H2O2-induced cell death
